Test results: patent US20250326744A1, “PIPERAZINE DERIVATIVE OR SALT THEREOF, AND PHARMACEUTICAL COMPOSITION” (priority 2022, published 2025)
Where a name gives a salt, the structure may show the parent alone.

Columns and labels:
mexB (PA) strain = assay: Combinational effect with antibacterial agent against Pseudomonas aeruginosa (Test Examples 2 and 4): mexB (PA) strain with LVFX, TC or AZT at 1/4 MIC, EC99; format: cell-based; conditions: mexB (PA) strain, Test Example 4; for EC99, combinational effect with AZT, mexB (PA): combined with AZT at 1/4 MIC; for EC99, combinational effect with LVFX, mexB (PA): combined with LVFX at 1/4 MIC; for EC99, combinational effect with TC, mexB (PA): combined with TC at 1/4 MIC
Summary of the method: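 P. aeruginosa mexB (PA) strain, lacking MexCD-OprJ, MexEF-OprN and MexXY and overexpressing MexAB-OprM, grown 16–20 h in CAMHB (10^4–5 CFU/well) with LVFX, TC or AZT at ¼ MIC plus test compound at 0–800 μM. Growth read as OD595; EC99 is the lowest compound concentration giving ≥99% growth inhibition.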

S-3769 strain = assay: Combinational effect with antibacterial agent against Pseudomonas aeruginosa (Test Examples 2 and 4): S-3769 strain with AMK or GM at 1/4 MIC, EC99; format: cell-based; conditions: S-3769 strain, Test Example 4; for EC99, combinational effect with AMK, S-3769 strain: combined with AMK at 1/4 MIC; for EC99, combinational effect with GM, S-3769 strain: combined with GM at 1/4 MIC
Summary of the method: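 P. aeruginosa S-3769 (clinical isolate, MexY overexpressed) grown 16–20 h in CAMHB, 10^4 to 5 CFU/well, with AMK or GM at ¼ MIC plus test compound 0–800 μM. Growth read as OD595; EC99 is the lowest compound concentration giving ≥99% growth inhibition.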

Row | Structure (SMILES) | EC99, combinational effect with AZT, mexB (PA) (mexB (PA) strain) | EC99, combinational effect with LVFX, mexB (PA) (mexB (PA) strain) | EC99, combinational effect with TC, mexB (PA) (mexB (PA) strain) | EC99, combinational effect with AMK, S-3769 strain (S-3769 strain) | EC99, combinational effect with GM, S-3769 strain (S-3769 strain)
1 | CSc1cccnc1CN1CCN(C(=O)[C@H](N)C2CCN(CCc3cc(Cl)ccc3-c3ccccc3)CC2)CC1 [Example 536, Hydrobromide of (R)-2-amino-2-(1-(2-(4-chloro-[1,1-biphenyl]-2-yl)ethyl)piperidin-4-yl)-1-(4-((3-(methylthio)pyridin-2-yl)methyl)piperazin-1-yl)ethan-1-one] | A (12.5 μM<EC99≤25 μM) | A (12.5 μM<EC99≤25 μM) | B (25 μM<EC99≤100 μM) | B (25 μM<EC99≤100 μM) | B (25 μM<EC99≤100 μM)
2 | COc1c(CN2CCN(C(=O)[C@H](N)C3CCN(CCc4cc(Cl)ccc4-c4ccccc4)CC3)CC2)cccc1B(O)O [Example 537, Hydrobromide of (R)-(3-((4-(2-amino-2-(1-(2-(4-chloro-[1,1-biphenyl]-2-yl)ethyl)piperidin-4-yl)acetyl)piperazin-1-yl)methyl)-2-methoxyphenyl)boronic acid] | C (100 μM<EC99) | C (100 μM<EC99) | B (25 μM<EC99≤100 μM) | B (25 μM<EC99≤100 μM) | A (12.5 μM<EC99≤25 μM)
3 | CSc1ccccc1CN1CCN(C(=O)[C@H](N)C2CCN(CCc3cscc3-c3ccccc3)CC2)CC1 [Example 539, Hydrobromide of (R)-2-amino-1-(4-(2-(methylthio)benzyl)piperazin-1-yl)-2-(1-(2-(4-phenylthiophen-3-yl)ethyl)piperidin-4-yl)ethan-1-one] | B (25 μM<EC99≤100 μM) | B (25 μM<EC99≤100 μM) | B (25 μM<EC99≤100 μM) | B (25 μM<EC99≤100 μM) | B (25 μM<EC99≤100 μM)
4 | CCOc1cccc(F)c1CN1CCN(C(=O)[C@H](N)C2CCN(CCc3cscc3-c3ccccc3)CC2)CC1 [Example 540, Hydrobromide of (R)-2-amino-1-(4-(2-ethoxy-6-fluorobenzyl)piperazin-1-yl)-2-(1-(2-(4-phenylthiophen-3-yl)ethyl)piperidin-4-yl)ethan-1-one] | C (100 μM<EC99) | B (25 μM<EC99≤100 μM) | B (25 μM<EC99≤100 μM) | A (12.5 μM<EC99≤25 μM) | A (12.5 μM<EC99≤25 μM)
5 | CCSc1cc(F)ccc1CN1CCN(C(=O)[C@H](N)C2CCN(CCc3ncccc3-c3ccccc3)CC2)CC1 [Example 542, Hydrobromide of (R)-2-amino-1-(4-(2-(ethylthio)-4-fluorobenzyl)piperazin-1-yl)-2-(1-(2-(3-phenylpyridin-2-yl)ethyl)piperidin-4-yl)ethan-1-one] | B (25 μM<EC99≤100 μM) | B (25 μM<EC99≤100 μM) | B (25 μM<EC99≤100 μM) | B (25 μM<EC99≤100 μM) | B (25 μM<EC99≤100 μM)
6 | CCSc1cc(F)ccc1CN1CCN(C(=O)[C@H](N)C2CCN(CCc3cc(Cl)ccc3-c3cccc(N)c3)CC2)CC1 [Example 544, hydrobromide of (R)-2-amino-2-(1-(2-(3′-amino-4-chloro-[1,1′-biphenyl]-2-yl)ethyl)piperidin-4-yl)-1-(4-(2-(ethylthio)-4-fluorobenzyl)piperazin-1-yl)ethan-1-one] | S (EC99≤12.5 μM) | S (EC99≤12.5 μM) | S (EC99≤12.5 μM) | A (12.5 μM<EC99≤25 μM) | S (EC99≤12.5 μM)
7 | CCOc1cccc(F)c1CN1CCN(C(=O)[C@H](N)C2CCN(CCc3cc(Cl)ccc3-c3ccoc3)CC2)CC1 [Example 547, Hydrobromide of (R)-2-amino-2-(1-(5-chloro-2-(furan-3-yl)phenethyl)piperidin-4-yl)-1-(4-(2-ethoxy-6-fluorobenzyl)piperazin-1-yl)ethan-1-one] | B (25 μM<EC99≤100 μM) | B (25 μM<EC99≤100 μM) | C (100 μM<EC99) | S (EC99≤12.5 μM) | S (EC99≤12.5 μM)
8 | CCOc1cccc(F)c1CN1CCN(C(=O)[C@H](N)C2CCN(CCc3cc(Cl)ccc3-c3cccc4ccccc34)CC2)CC1 [Example 548, Hydrobromide of (R)-2-amino-2-(1-(5-chloro-2-(naphthalen-1-yl)phenethyl)piperidin-4-yl)-1-(4-(2-ethoxy-6-fluorobenzyl)piperazin-1-yl)ethan-1-one] | A (12.5 μM<EC99≤25 μM) | S (EC99≤12.5 μM) | A (12.5 μM<EC99≤25 μM) | S (EC99≤12.5 μM) | A (12.5 μM<EC99≤25 μM)
9 | CCOc1cccc(F)c1CN1CCN(C(=O)[C@H](N)C2CCN(CCc3cc(Cl)ccc3-c3coc4ccccc34)CC2)CC1 [Example 549, Hydrobromide of (R)-2-amino-2-(1-(2-(benzofuran-3-yl)-5-chlorophenethyl)piperidin-4-yl)-1-(4-(2-ethoxy-6-fluorobenzyl)piperazin-1-yl)ethan-1-one] | A (12.5 μM<EC99≤25 μM) | A (12.5 μM<EC99≤25 μM) | A (12.5 μM<EC99≤25 μM) | A (12.5 μM<EC99≤25 μM) | A (12.5 μM<EC99≤25 μM)
10 | CCOc1cccc(F)c1CN1CCN(C(=O)[C@H](N)C2CCN(CCc3cc(Cl)ccc3-c3csc4ccccc34)CC2)CC1 [Example 550, Hydrobromide of (R)-2-amino-2-(1-(2-(benzo[b]thiophen-3-yl)-5-chlorophenethyl)piperidin-4-yl)-1-(4-(2-ethoxy-6-fluorobenzyl)piperazin-1-yl)ethan-1-one] | A (12.5 μM<EC99≤25 μM) | S (EC99≤12.5 μM) | A (12.5 μM<EC99≤25 μM) | A (12.5 μM<EC99≤25 μM) | A (12.5 μM<EC99≤25 μM)
11 | CSc1ccccc1CN1CCN(C(=O)[C@H](N)C2CCN(CCc3cc(Cl)ccc3-c3cccc(F)c3)CC2)CC1 [Example 551, Hydrobromide of (R)-2-amino-2-(1-(2-(4-chloro-3′-fluoro-[1,1-biphenyl]-2-yl)ethyl)piperidin-4-yl)-1-(4-(2-(methylthio)benzyl)piperazin-1-yl)ethan-1-one] | S (EC99≤12.5 μM) | S (EC99≤12.5 μM) | S (EC99≤12.5 μM) | B (25 μM<EC99≤100 μM) | A (12.5 μM<EC99≤25 μM)
12 | CSc1ccccc1CN1CCN(C(=O)[C@H](N)C2CCN(CCc3cc(Cl)ccc3C3=CCCNC3)CC2)CC1 [Example 553, Hydrobromide of (R)-2-amino-2-(1-(5-chloro-2-(1,2,5,6-tetrahydropyridin-3-yl)phenethyl)piperidin-4-yl)-1-(4-(2-(methylthio)benzyl)piperazin-1-yl)ethan-1-one] | A (12.5 μM<EC99≤25 μM) | S (EC99≤12.5 μM) | S (EC99≤12.5 μM) | S (EC99≤12.5 μM) | S (EC99≤12.5 μM)
13 | CCSc1cc(F)ccc1CN1CCN(C(=O)[C@H](N)C2CCN(CCc3cc(Cl)ccc3-c3cccc(F)c3)CC2)CC1 [Example 554, Hydrobromide of (R)-2-amino-2-(1-(2-(4-chloro-3′-fluoro-[1,1-biphenyl]-2-yl)ethyl)piperidin-4-yl)-1-(4-(2-(ethylthio)-4-fluorobenzyl)piperazin-1-yl)ethan-1-one] | S (EC99≤12.5 μM) | S (EC99≤12.5 μM) | S (EC99≤12.5 μM) | A (12.5 μM<EC99≤25 μM) | S (EC99≤12.5 μM)
14 | CSc1ccccc1CN1CCN(C(=O)[C@H](N)C2CCN(CCc3cc(Cl)ccc3-c3ccccc3N)CC2)CC1 [Example 556, Hydrobromide of (R)-2-amino-2-(1-(2-(2′-amino-4-chloro-[1,1-biphenyl]-2-yl)ethyl)piperidin-4-yl)-1-(4-(2-(methylthio)benzyl)piperazin-1-yl)ethan-1-one] | S (EC99≤12.5 μM) | S (EC99≤12.5 μM) | S (EC99≤12.5 μM) | B (25 μM<EC99≤100 μM) | B (25 μM<EC99≤100 μM)
